Measurements published in patent US10183055B2, “Ang-(1-7) derivative oligopeptides for the treatment of pain and other indications” (ARIZONA BOARD OF REGENTS ON BEHALF OF THE UNIVERSITY OF …, priority 2014, dated 2019).
Like-named read-outs stand apart in the source and are kept apart here. Values belong to the compound of their own block, whether it stands above or below them. Residues, ends and D or L forms follow the SMILES beside them. *: point of attachment. X2 = OC[C@H]1O[C@@H](O[C@H]2[C@H](O)[C@@H](O)[C@H](*)O[C@@H]2CO)[C@H](O)[C@@H](O)[C@H]1O; X1 = OC[C@H]1OC(*)[C@H](O)[C@@H](O)[C@@H]1O

Columns and labels:
[1] = mouse, serum
Description: (§1) Aliquots were withdrawn at the indicated time intervals and the peptide concentration was determined using HPLC-MS and expressed as a percentage of the initial concentration.

[2] = In vivo serum and CSF concentration after subcutaneous injection
Description: The peptides (10 mg/kg) or vehicle control were individually subcutaneously injected into naïve mice. Serum concentrations were determined every 10 minutes by HPLC-MS using a 20-30 μl blood sample. […] CSF samples were simultaneously withdrawn from the same animals via a microdialysis probe and assayed for the peptide concentration and corrected for basal CSF levels.

[3] = tested on: human umbilical vascular endothelial cells (HUVEC); assay: xCELLigence RTCA cell activation (cell impedance); type: cell-based
Excerpt: Cell culture. To isolate primary hippocampal CA1 neuronal cells, whole brain was removed from neonatal rat pups (1-2 day old) and the cortices dissected away. The hippocampus was isolated and the CA1 field was excised and placed in buffer. After gentle disruption in digestion buffer, the cells were counted, placed in culture media, and plated in a 96-well format coated with poly-d-lysine. At the time of plating, cells were approximately at 50% density and were allowed to culture to 70-80% density before starting the assay. Commercially available HUVEC (Life Technologies/Thermo Fisher) was thawed and plated (5000-10,000 cells/well) in a 96-well format coated with gelatin. HUVEC cells were allowed to culture overnight before starting the assay.
Cell Activation: The xCELLigence system Real-Time Cell Analyzer (RTCA), developed by Roche Applied Science, uses microelectronic biosensor technology to do dynamic, real-time, label-free, and non-invasive analysis of cellular events including G-protein receptor activation of cells. The RTCA analysis was utilized to measure the potency and relative ability of oligopeptides of the invention and native Ang-(1-7) to activate human umbilical vascular endothelial cells (HUVEC) in culture. Following uniform cellular adherence based on a linear increase in cell impedance (CI), HUVECs were treated with Ang-(1-7) and oligopeptides of the invention. Each trace of the CI over time in FIG. 1 represents the average of 4 wells normalized to CI at the time of compound addition.

[4] = tested on: human umbilical vascular endothelial cells (HUVEC); assay: NO production assay (DAF-FM fluorescence, microplate reader); type: cell-based; conditions: 5 minutes exposure
Description: NO production assay. As a screen for mechanisms of action of oligopeptides of the invention, the ability to increase NO production of three oligopeptides of the invention (PN-A3, PN-A4 and PN-A5) were characterized and compared to native Ang-(1-7). Human umbilical vascular endothelial cells (HUVEC) culture plates received fluorescence reaction buffer (0.2 M phosphate buffer, pH 7, 1 mM EDTA, 0.1% glucose) containing diaminofluorescein-FM diacetate (DAF-FM, 1 μM) to measure real-time NO production. Time-resolved (10 minutes) fluorescent intensity was detected using a BioTek Synergy 2 microplate reader with excitation at 485 nm and emission at 535 nm. DAF-FM is a sensitive flourometric derivative for the selective detection of NO in live cells.
Values were normalized to control fluorescence.

[5] = tested on: naïve mice; assay: Rotarod performance test; type: in vivo; conditions: spinal 0.3 pmol/5 μL or systemic 0.058 and 10 μg/kg
Description: Rotarod: A rotarod performance test was used to determine the motor and/or sedative effects of Ang-(1-7) (Rotamex 4/8, Columbus Instruments, Columbus, Ohio, USA). Three days prior to testing, naïve mice were subjected to 5 trials in which they were able to acclimate to the rotating rod (10 revolutions/min). On the day of testing, animals were allowed one trial and then baselined. The amount of time the animal remained on the rod was recorded, with a cutoff time of 120 seconds to prevent exhaustion. Animals were dosed (i.p.) as previously described and reevaluated 15, 30, 60, and 120 minutes post-administration.
To exclude the possibility that Ang-(1-7) administration reduced mobility in order to increase tail withdraw latency, rotarod testing was performed. Naïve animals were trained to walk on a rotating rod for 2 min. After training, animals were injected with Ang-(1-7) by either spinal (0.3 pmol/5 μL) or systemic routes (0.058 and 10 μg/kg).

[6] = tested on: BALB/cAnNHsd mice with intramedullary 66.1 cells (CIBP); assay: Established CIBP, acute behavioral testing (flinching/guarding); type: in vivo; conditions: for pain behaviors, AT1 or AT2 antagonist administered alone: 0.4 mg/kg i.p.
Description: Animals: Female BALB/cAnNHsd mice (Harlan, Ind., USA) between 15 and 20 g were used in this study. Mice were housed in a climate control room on a 12-hour light/dark cycle and allowed food and water ad libitum. Animals were monitored on days 0, 7, 10, and 14 of the study for clinical signs of rapid weight loss and signs of distress.
All intraperitoneal (i.p.) injections were made at a volume of 10 mL/kg.
Arthrotomy—Intramedullary Implantation of 66.1 Cells: To induce CIBP, an arthrotomy was performed. Briefly, animals were anesthetized with 80 mg/kg ketamine-12 mg/kg xylazine (in a 10 mL/kg volume). The surgical area was shaved and cleaned with 70% ethanol and betadine. The condyles of the right femur were exposed and a burr-hole (0.66 mm) was drilled to create a space for the 66.1 cell inoculation. A 5 μl volume of 66.1 cells (8,000 cells per 1 μl) in MEM (or 5 μl MEM without cells in sham animals) was injected into the intramedullary space of the mouse femora. Proper placement of the injector was confirmed by radiograph (Faxitron X-ray imaging). Holes were sealed with bone cement and the patella reset. Muscle and skin were closed in separate layers with 5-0 vicryl suture and wound autoclips, respectively. Animals were given 8 mg/kg (10 mL/kg volume) gentamicin to prevent infection. Staples were removed 7 days post-surgery.
Acute Behavioral Testing: Fourteen days post-surgery, baseline behaviors of spontaneous flinching/guarding were recorded. Flinching was characterized by the lifting and rapid flexing of the hind paw ipsilateral to femoral inoculation when not associated with walking or other movement. Guarding was characterized by the lifting the inoculated hind limb into a fully retracted position under the torso. The total number of flinches and the time spent guarding 2 min duration was recorded. […] Antagonists were administered 30 minutes prior to Ang-(1-7). Following administration, animals were tested at over a three-hour time course until their pain behaviors returned to baseline

[7] = In Vitro Serum Half-Life Assay; conditions: mouse
Description: as §1

half-life [1]: 1 h
maximum CSF concentration ([2]; 10 mg/kg subcutaneous, naïve mice, microdialysis, corrected for basal CSF levels): about 400 nM
Cmax ([2]; mouse, serum, sc, 10 mg/kg): ~3.5 µM
Compound: CC[C@H](C)[C@H](NC(=O)[C@H](Cc1ccc(O)cc1)NC(=O)[C@@H](NC(=O)[C@H](CCCNC(=N)N)NC(=O)[C@@H](N)CC(=O)O)C(C)C)C(=O)N[C@@H](Cc1c[nH]cn1)C(=O)N[C@@H](COC1O[C@H](CO)[C@@H](O)[C@H](O)[C@H]1O)C(N)=O (stereo partly drawn) [PN-A5, Ang 1-6-Ser(OGlc)-NH2] (H-DRVYIHS(X1)-NH2)

Compound: PN-A4: Asp Arg Val Tyr Ile His Pro Ser** (lactosylated), carboxyl terminal NH2 (SEQ ID NO: 9) (DRVYIHPS; lactosylated; C-terminal amide; MOD_RES (8)..(8) Lactosylated-Ser; C-term -NH2)
increase in cell impedance (CI) over the native Ang-(1-7) ([3]; 100 nM): ~2 fold
NO production versus control levels (relative peak fluorescence intensity) [4]: significant elevation of NO over control levels

Compound: CC[C@H](C)[C@H](NC(=O)[C@H](Cc1ccc(O)cc1)NC(=O)[C@@H](NC(=O)[C@H](CCCNC(=N)N)NC(=O)[C@@H](N)CC(=O)O)C(C)C)C(=O)N[C@@H](Cc1c[nH]cn1)C(=O)N1CCC[C@H]1C(=O)O [Ang-(1-7), Asp-Arg-Val-Tyr-Ile-His-Pro]
rotarod latencies versus vehicle [5]: No significant differences in rotarod latencies

Compound: Cc1cc(Cn2cnc3c2C[C@@H](C(=O)O)N(C(=O)C(c2ccccc2)c2ccccc2)C3)ccc1N(C)C [PD 123319]
pain behaviors, AT1 or AT2 antagonist administered alone [6]: neither Losartan potassium nor PD 123319 significantly altered pain behaviors
guarding or flinching versus Ang-(1-7) alone ([6]; PD 123319 0.4 mg/kg i.p. 30 minutes prior to Ang-(1-7) 0.058 μg/kg): did not further increase nor decrease guarding or flinching

Compound: CCCCc1nc(Cl)c(CO)n1Cc1ccc(-c2ccccc2-c2nn[nH]n2)cc1 [Losartan potassium]
pain behaviors, AT1 or AT2 antagonist administered alone [6]: neither Losartan potassium nor PD 123319 significantly altered pain behaviors
MPE in reducing flinching ([6]; Losartan potassium 0.4 mg/kg i.p. 30 minutes prior to Ang-(1-7) 0.058 μg/kg, 15 minutes post-administration): 80.56%
maximal possible efficacy (MPE) in reducing guarding ([6]; Losartan potassium 0.4 mg/kg i.p. 30 minutes prior to Ang-(1-7) 0.058 μg/kg, 30 minutes post-administration): 77.527%

Compound: PN-A3: Asp Arg Val Tyr Ile His Pro Ser* (glucosylated), carboxyl terminal NH2 (SEQ ID NO: 8) (DRVYIHPS; glucosylated; C-terminal amide; MOD_RES (8)..(8) Glucosylated-Ser; C-term -NH2)
increase in cell impedance (CI) over the native Ang-(1-7) ([3]; 10 nM): ~2 fold
increase in cell impedance (CI) over the native Ang-(1-7) ([3]; 100 nM): ~2 fold
NO production versus control levels (relative peak fluorescence intensity) [4]: significant elevation of NO over control levels

Compound: CC[C@H](C)[C@H](NC(=O)[C@H](Cc1ccc(O)cc1)NC(=O)[C@@H](NC(=O)[C@H](CCCNC(=N)N)NC(=O)[C@@H](N)CC(=O)O)C(C)C)C(=O)N[C@@H](Cc1c[nH]cn1)C(=O)N[C@@H](CO[C@@H]1O[C@H](CO)[C@@H](O[C@@H]2O[C@H](CO)[C@H](O)[C@H](O)[C@H]2O)[C@H](O)[C@H]1O)C(N)=O [Ang 1-6-Ser(OLac)-NH2] (H-DRVYIHS(X2)-NH2)
half-life [7]: 5.8 h
